Measurements as given in patent US20080221086A1, “Novel Inhibitors of Glutaminyl Cyclase” (PROBIODRUG AG, priority 2006, published 2008).

What follows are compounds tested against hQC (Homo sapiens, UniProt Q16769) (assay: Fluorometric assay of glutaminyl cyclase (QC) inhibition, H-Gln-βNA or H-Gln-AMC substrate). Settings: read-out: IC50.
Type: biochemical
Procedure, shortened: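 Fluorometric coupled assays at 30° C in Tris/HCl pH 8.0 with EDTA and pyroglutamyl aminopeptidase used either 0.2 mM H-Gln-βNA (320/410 nm) or H-Gln-AMC (380/460 nm), started by QC. Screening used 4 mM inhibitor at substrate 1 KM. Ki came from fitting progress curves to competitive inhibition.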

hQC, sequence (Q16769 29-361): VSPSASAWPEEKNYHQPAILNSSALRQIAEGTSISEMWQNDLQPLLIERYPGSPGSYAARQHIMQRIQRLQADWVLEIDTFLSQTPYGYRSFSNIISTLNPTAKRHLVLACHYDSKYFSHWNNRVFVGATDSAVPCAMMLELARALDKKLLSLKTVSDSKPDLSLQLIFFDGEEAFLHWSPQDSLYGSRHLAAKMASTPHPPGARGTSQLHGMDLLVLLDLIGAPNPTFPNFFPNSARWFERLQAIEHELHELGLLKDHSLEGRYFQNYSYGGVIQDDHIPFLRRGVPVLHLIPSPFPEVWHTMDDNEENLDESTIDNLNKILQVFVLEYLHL

Structure (SMILES)	IC50 [µM]
COC(=O)C(C)/N=C1\NC(=O)N(c2ccc3[nH]cnc3c2)C1c1ccccc1 (centres unmarked) [Compound 234, Methyl 2-(1-(1H-benzo[d]imidazol-5-yl)-2-oxo-5-phenylimidazolidin-4-ylideneamino)propanoate]	7.6
COC(=O)C(C)/N=C1\NC(=S)N(c2ccc3[nH]cnc3c2)C1c1ccc(C)cc1 (centres unmarked) [Compound 320, Methyl 2-(1-(1H-benzo[d]imidazol-5-yl)-2-thioxo-5-p-tolylimidazolidin-4-ylideneamino)propanoate]	5.8
CN(C)c1ccc(C2/C(=N\Cn3nnc4ccccc43)NC(=O)N2c2ccc3[nH]cnc3c2)cc1 (centres unmarked) [Compound 322, 1-(1H-Benzoimidazol-5-yl)-4-benzotriazol-1-ylmethylimino-5-(4-dimethylamino-phenyl)-imidazolidin-2-one]	1.3
O=C(C/N=C1/NC(=O)N(CCCn2ccnc2)C1c1cccc(F)c1)N1CCc2ccccc2C1 (centres unmarked) [Compound 77, 4-2-(3,4-Dihydro-1H-isoquinolin-2-yl)-2-oxo-ethylimino-5-(3-fluoro-phenyl)-1-(3-imidazol-1-yl-propyl)-imidazolidin-2-one]	4
O=C1N/C(=N\C2CCCCC2)C(c2cc3c(cc2Br)OCO3)N1c1ccc2nc[nH]c2c1 (centres unmarked) [Compound 196, 1-(3H-Benzoimidazol-5-yl)-5-(6-bromo-benzo1,3-dioxol-5-yl)-4-cyclohexylimino-imidazolidin-2-one]	0.004
O=C1N/C(=N\c2ccc(Oc3ccccc3)cc2)C(C2CCC=CO2)N1CCCn1ccnc1 (centres unmarked) [Compound 100, 5-(3,4-Dihydro-2H-pyran-2-yl)-1-(3-imidazol-1-yl-propyl)-4-4-phenoxy-phenylimino-imidazolidin-2-one]	4.9
O=C(CN=C1NC(=S)N(c2ccc3nc[nH]c3c2)C1c1c(F)ccc(Cl)c1F)N1CCCCC1 (centres unmarked) [Compound 185, 2-(1-(1H-benzo[d]imidazol-6-yl)-5-(3-chloro-2,6-difluorophenyl)-2-thioxoimidazolidin-4-ylideneamino)-1-(piperidin-1-yl)ethanone]	0.4
O=C1N/C(=N/CCC(c2ccccc2)c2ccccc2)C(CO)N1CCCn1ccnc1 (centres unmarked) [Compound 111, 4-3,3-Diphenyl-propylimino-5-hydroxymethyl-1-(3-imidazol-1-yl-propyl)-imidazolidin-2-one]	9.4
O=C(CN=C1NC(=O)N(c2ccc3[nH]cnc3c2)C1c1cc2c(cc1Br)OCO2)N1CCCCC1 (centres unmarked) [Compound 327, 4-(2-Oxo-2-(piperidin-1-yl)ethylimino)-1-(1H-benzo[d]imidazol-5-yl)-5-(5-bromobenzo[d][1,3]dioxol-6-yl)imidazolidin-2-one]	0.004

Continued by falling IC50, values first:

IC50 [µM]	Structure (SMILES)
7.6	CCc1ccccc1/N=C1\NC(=S)N(c2ccc3nc[nH]c3c2)C1C1CCC(C)=CC1C (centres unmarked) [Compound 288, 1-(3H-Benzoimidazol-5-yl)-5-(2,4-dimethyl-cyclohex-3-enyl)-4-2-ethyl-phenylimino-imidazolidine-2-thione]
5.8	O=C1N/C(=N/Cc2ccccc2)C(c2cc(F)cc(F)c2)N1CCCn1ccnc1 (centres unmarked) [Compound 95, 4-Benzylimino-5-(3,5-difluoro-phenyl)-1-(3-imidazol-1-yl-propyl)-imidazolidin-2-one]
1.3	O=C1CCCN1CCC/N=C1/NC(=O)N(c2ccc3[nH]cnc3c2)C1c1cc(F)cc(F)c1 (centres unmarked) [Compound 335, 1-(1H-Benzoimidazol-5-yl)-5-(3,5-difluoro-phenyl)-4-3-(2-oxo-pyrrolidin-1-yl)-propylimino-imidazolidin-2-one]
0.4	COC(=O)C(C)N=C1NC(=O)N(c2ccc3[nH]cnc3c2)C1c1c(F)cc(Cl)cc1F (centres unmarked) [Compound 290, Methyl 2-(1-(1H-benzo[d]imidazol-5-yl)-5-(4-chloro-2,6-difluorophenyl)-2-oxoimidazolidin-4-ylideneamino)propanoate]
0.004	O=C1N/C(=N\C2CCCC2)C(c2ccc(N3CCCC3)cc2)N1c1ccc2[nH]cnc2c1 (centres unmarked) [Compound 129, 1-(1H-Benzoimidazol-5-yl)-4-cyclopentylimino-5-(4-pyrrolidin-1-yl-phenyl)-imidazolidin-2-one]
